Measurements from patent US6255347A (priority 1997, dated 2001).
“Also recorded” adds a separate entry of the source.

Tests used:
PKCα = PKCα translocation in NIH 3T3 cells (subcellular fractionation, Western blot); type: cell-based; conditions: for PKCα localization: PMA 0.02 μg/ml, 2% FBS
Protocol: (§1) NIH 3T3 cells (American Type Culture Collection, Rockville, Md.) were cultured in DMEM supplemented with 10% FBS inoculated at 10^4 cells/35 […] dish. […] PMA and ibuprofen were dissolved in DMSO and stored in 5% DMSO stock solutions that were diluted a 1000-fold with culture media prior to use. […] The media containing freshly added PMA and ibuprofen were changed every 60 hours for both the foci formation assay and PKCα analysis by Western blot.
(§2) The cells were washed twice with phosphate-buffered saline (PBS) at 37° C. and subsequently lysed and scraped in 1 ml ice-cold protein lysis buffer (20 mM Tris-HCl, pH7.4, 2 mM EGTA, 2 mM EDTA, […] leupeptin and […] aprotinin) at 4° C. […] Briefly, cells were homogenized 10× in 15 ml glass homogenizer with a tight-fitting pestle and centrifuged at 900×g for 10 min. The resulting supernatant was then centrifuged at 100,000×g for 60 min to produce a nucleus-free membrane fraction (pellet) and a cytosol fraction (supernatant) for Western blots. The 900×g nuclear pellet was suspended in the 2 ml lysis buffer containing 10% sucrose and 0.1% Triton X-100 and washed twice by centrifuging at 1000×g for 10 min, then resuspended in 1 ml of the same buffer without Triton X-100 for Western blots. The purity of the fractions was monitored by light microscopy. […] The samples were stored at -70° C. until analysis.
(§3) 15 μl of human plasma, 15 μl of rat plasma, CSF or 50 μg of rat brain protein were denatured with 35 μl of sample buffer at 95° C. for 4 min. Denatured proteins were separated by 10% SDS-polyacrylamide gel electrophoresis with a 50 μg or 20 μg protein load for each sample for APPs or PKC, respectively, and electrophoretically transferred from gel to nitrocellulose membrane. […] The immunoreactive bands were developed using enhanced chemilumenescence (ECL. Amersham Life Sci., Little Chalfont, UK), following extensive washing with the blocking buffer. The PKC bands were verified in each case by competitively blocking the signal with the peptide corresponding to each of PKCs. The bands were quantitated by scanning densitometry. Quantitative comparisons were made between samples processed simultaneously on one blot.

PKC ε = conditions: cytosolic or membranous fractions
Protocol: as §2, §3
(§4) Male Sprague-Dawley rats (12 month) were obtained from Harlan-Sprague-Dawley, Inc. (Indianapolis, Ind.) and housed under controlled conditions of temperature humidity and light/dark cycle. […] Rat blood, brain and 50 μl of cerebrospinal fluid were collected and stored at -70° C. for APPs and PKC analysis by Western blotting. Rat stomach and duodenum were collected for the quantitation of gastroduodenal lesions.
(§5) Following separation of cytosolic or membrane proteins of rat brain protein by SDS-polyacrylamide gel electrophoresis, the proteins were transfer to nitrocellular membranes. The membranes were then probed for presence of PKCs using polyclonal antibodies against PKC α, βII, θ, ε, .xi., or γ.

PKC γ = conditions: cytosolic or membranous fractions
Protocol: as §2, §3, §4, §5

PKC θ = conditions: cytosolic or membranous fractions
Protocol: as §2, §3, §4, §5

PKC βII = tested on: PKC βII
Protocol: as §2, §3, §4, §5

PKC α = tested on: PKC α
Protocol: as §2, §3, §4, §5

PKC .xi. = conditions: cytosolic or membranous fractions
Protocol: as §2, §3, §4, §5

[1] = tested on: APPs secretion by NIH 3T3 cell lines; conditions: 50 μM
APPs [2] = conditions: 10 mg/kg P.O. bid, 7 days
Protocol: as §3, §4
The cytosolic and membrane fractions were obtained by differential centrifugation of rat brain tissue treated by ibuprofen. […]

rat stomach and duodenum = test: Gastric ulcer index / gastroduodenal lesions in rat; type: in vivo; conditions: rat, in vivo
Protocol: as §4
The rat stomach and first 12 cm of the duodenum were opened and carefully shed with saline to remove any residual debris and fixed in 10% buffered formaldehyde. Tissues were examined macroscopically (×10) for lesions and hemorrhages. The evaluation of lesions or hemorrhages was based on the ulcer index (UI) reported by Leyck et al. (1985) and expressed as the sum total of lesions per treatment. The scoring units used ranged from 0 to 5, where zero represents no macroscopically visible lesions; 1 represents one to three small ulcers less than 4 mm; 2 represents more than three small ulcers; 3 represents ulcer hemorrhages with several small ulcers; 4 represents large (>4 mm) ulcers; 5 indicates tissue perforation.

APPs (105 kDa) = APPs (105 kDa) in human blood; type: in vivo
Protocol: as §3
Food intake was restricted until 4 h post dose. […] Over the next 6 days, ibuprofen was administered as 800 mg t.i.d. and subjects were instructed to return on day 3 and 5 for a single blood draw. […] Serum samples were stoiced -20° C. prior to analysis.

APPs [3] = conditions: 10 mg/kg P.O. bid, 7 days; remark: listed apart in the source
Protocol: as §2, §3
(§6) Male Sprague-Dawley rats (12 month) were obtained from Harlan-Sprague-Dawley, Inc. (Indianapolis, Ind.) and housed under controlled conditions of temperature humidity and light/dark cycle. […] Rat stomach and duodenum were collected for the quantitation of gastroduodenal lesions. […]

NIH 3T3 cells = test: Foci formation assay, inhibition of PMA induced neoplastic transformation of NIH 3T3 cells; type: cell-based; conditions: for inhibition of PMA induced foci formation / neoplastic transformation: ibuprofen 10 or 100 μg/ml
Protocol: as §1
Subsequent to washing with a tris/ saline buffer, the cells were stained with a solution of 4% aqueous Giemsa stain in phosphate buffer (pH 7.0). Foci of transformed cells were then visible by eye due to their high local density and verified by under light microscopy.

PKC = target: T1, PKC (Rattus norvegicus, UniProt P05696); test: Protein kinase C activity assay (histone phosphorylation, partially purified rat brain PKC); type: biochemical; conditions: PMA stimulated, 2 min, 30° C.
T1 construct: Partially purified PKCα from rat brain; purchased Promega (Madison, Wis.); host or cells: rat brain (tissue enzyme, partially purified)
Protocol: The following were obtained from the Sigma Chemical Co. (St. […] Anti-PKCα antibody (affinity purified) and its C-terminal region peptide was obtained from Life Technologies (Gaithersburg, Md.). […] All other chemicals were of the highest available purity and were obtained from standard commercial sources. […] Following 2 min initial incubation at 30° C., kinase reactions were initiated by the addition of ^32 P-γ-ATP and enzyme and continued at 30° C. for 2 min. Control incubations contained all assay components except enzyme and ibuprofen. […] All samples were carried out in duplicate.

[4] = tested on: c-jun expression in NIH 3T3 cells; conditions: cited from earlier work
lung and gastric cancer = conditions: carcinogen induced; cited from earlier work
neutrophil = conditions: by chemotactic agents; cited from earlier work
UACC 375 = conditions: cited from earlier work
APP = conditions: 10 mg/kg P.O. bid, 7 days
Protocol: as §2, §3, §6

MCF 7/s = conditions: cited from earlier work
[5] = cited from earlier work
rat colon cancer = conditions: carcinogen induced; cited from earlier work
[6] = Estimated unbound fraction of ibuprofen in culture media; type: in vitro ADME
[7] = tested on: mouse mammary glands cancer; conditions: carcinogen induced; cited from earlier work
Ht-29 = conditions: cited from earlier work
A-427 = conditions: cited from earlier work
AD progression = conditions: 6-month, double-blind, placebo-controlled; cited from earlier work
[8] = membrane fraction, 10 mg/kg bid 7 days, n = 4 mean ± S.D.

SMILES: CC(C)Cc1ccc(C(C)C(=O)O)cc1 (racemic) [RS-ibuprofen]
- PKCα detectable in the membrane fraction (PKCα; 10 μg/ml, 2 weeks of PMA): detectable in the membrane fraction
- inhibition of PKCα translocation from cytosol to nuclear compartments (PKCα; 10 μg/ml, PMA 4 hours): completely blocked
- inhibition of PKCα translocation, racemate versus enantiomers (PKCα; 10 μg/ml, particularly 2 weeks of PMA): less potent than either of the enantiomers
- effect on PKC ε content (PKC ε): did not show a dramatic effect
- effect on PKC γ content (PKC γ): did not show a dramatic effect
- effect on PKC θ content (PKC θ): did not show a dramatic effect
- rat brain PKC βII content (in words) (PKC βII; 7 days of treatment): not significantly
- Density of PKC βII Bands (PKC βII; [8]): 8.46 ± 3.68
- rat brain PKC α content (in words) (PKC α; 7 days of treatment): not significantly
- Density of PKC α Bands (PKC α; [8]): 13.61 ± 5.15
- effect on PKC .xi. content (PKC .xi.): did not show a dramatic effect
- Density of APPs band ([1]; 20 h culture, n = 2, mean ± S.D.): 6.073 ± 0.55
- APPs secretion in rat CSF (in words) (APPs [2]): dramatically increased APPs secretion
- Density of APP Bands, CSF (APPs [2]; n = 4 mean ± S.D.): 13.63 ± 6.56
- gastropathy (in words) (rat stomach and duodenum): induced serious gastric ulcers and hemorrhage
- human blood APPs (105 kDa) (APPs (105 kDa); 1st dose (800 mg), 0 hour (before dose), n = 4, mean ± S.D.): 1.95
- duration of increased APPs (105 kDa) secretion (APPs (105 kDa); after 7 days dosing, 800 mg t.i.d. oral): 14 days
- human blood APPs (105 kDa) (APPs (105 kDa); post 1st dose (800 mg), 1 hour, n = 4, mean ± S.D.): 3.64
- human blood APPs (105 kDa) (APPs (105 kDa); post 1st dose (800 mg), 3 hours, n = 4, mean ± S.D.): 3.22
- human blood APPs (105 kDa) (APPs (105 kDa); post 7 days dose (800 mg, tid), 1 hour, n = 4, mean ± S.D.): 4.57
- human blood APPs (105 kDa) (APPs (105 kDa); post 7 days dose (800 mg, tid), 1 day, n = 4, mean ± S.D.): 6.15
- human blood APPs (105 kDa) (APPs (105 kDa); post 7 days dose (800 mg, tid), 2 days, ND = Not detectable): 4.77
- human blood APPs (105 kDa) (APPs (105 kDa); post 7 days dose (800 mg, tid), 3 days, ND = Not detectable): 4.33
- human blood APPs (105 kDa) (APPs (105 kDa); post 7 days dose (800 mg, tid), 4 days, ND = Not detectable): 3.37
- human blood APPs (105 kDa) (APPs (105 kDa); post 7 days dose (800 mg, tid), 14 days, ND = Not detectable): 3.77
- duration of increased APPs (105 kDa) secretion (APPs (105 kDa); single oral 800 mg dose): 1 days
- Density of APP Bands, Cytosol (APPs [3]; n = 4 mean ± S.D.): 9.32 ± 5.35
- inhibition of PMA induced foci formation / neoplastic transformation (NIH 3T3 cells; PMA 0.02 μg/ml, 2% FBS, 6 weeks, listed as Racemic ibuprofen): dramatically decreased
- inhibition of PMA induced foci formation / neoplastic transformation (NIH 3T3 cells; PMA 0.02 μg/ml, 2% FBS, 6 weeks, listed as racemic ibuprofen): inhibit the neoplastic transformation; also recorded: substantially inhibited
- concentration inhibiting PKC mediated histone phosphorylation (PKC): 2 µM

SMILES: CCCCCCCCCCCCCC(=O)O[C@@H]1[C@@H](C)[C@@]2(O)[C@@H](C=C(CO)C[C@]3(O)C(=O)C(C)=C[C@@H]23)[C@@H]2C(C)(C)[C@]12OC(C)=O [PMA, phorbol 12-myristate 13-acetate]
- PKCα localization (PKCα; 2 weeks): translocation from cytosol to membrane fractions, but interestingly translocation to the nuclear compartment was absent
- PKCα localization (PKCα; 30 min): translocation of PKCα to the membrane fraction and some indication of PKCα appearing in the nuclear fraction
- PKCα localization (PKCα; 4 hours): clear association of PKCα with the nuclear fraction
- PKCα localization (PKCα; 18 hours): remained at 18 hours despite its disappearance from the membrane and cytosolic fractions
- PKCα localization (PKCα; 48 hours): cytosolic PKCα had been regenerated but membrane and nuclear sites were not
- PKCα translocation (PKCα; reduced media FBS plus PMA 0.02 μg/ml, 4 to 18 hours): significant translocation of PKCα to both nuclear and microsomal membranes
- dish area occupied by foci (NIH 3T3 cells; PMA 0.02 μg/ml, 2% FBS, 6 weeks): over 50%
- c-jun expression [4]: transiently induces c-jun expression

SMILES: CC(C)Cc1ccc(C(C)C(=O)O)cc1 (stereo not drawn) [ibuprofen, α-4-(2-methylpropyl) benzeneacetic acid]
- anticancer activity (lung and gastric cancer): demonstrated anticancer activity
- APPs secretion (in words) ([1]; 20 h): increased APPs secretion
- blocking of neutrophil activation (neutrophil): blocks neutrophil activation by chemotactic agents but this effect is not enantioselective
- inhibition of proliferation (UACC 375): inhibits the proliferation
- content of cytosolic APPs of rat brain (in words) (APPs [3]): increased the content of cytosolic APPs
- content of membrane APP of rat brain (in words) (APP): decreased content of membrane APP of rat brain, but not significantly
- inhibition of proliferation (MCF 7/s): inhibits the proliferation
- effect on NIH 3T3 cell growth patterns without PMA (NIH 3T3 cells; DMSO vehicle, no PMA): no effect
- protein binding (in words) [5]: highly protein bound
- oral absorption ([5]; suspensions, drops, caplets, chewable tablets): well absorbed orally
- anticancer activity (rat colon cancer): demonstrated anticancer activity
- fraction unbound [6]: ~0.05
- anticancer activity [7]: demonstrated anticancer activity
- inhibition of proliferation (Ht-29): inhibits the proliferation
- inhibition of proliferation (A-427): inhibits the proliferation

SMILES: COc1ccc2c(c1)c(CC(=O)O)c(C)n2C(=O)c1ccc(Cl)cc1 [indomethacin]
- slowing AD progression (AD progression): very effective in slowing AD progression
